For the assay, the target named is human α2δ-1 subunit of Cav2.2 calcium channel (Homo sapiens (Human), UniProt P54289). Put plainly: Binding assay to human α2δ-1 subunit of Cav2.2 calcium channel ([3H]-Gabapentin). The conditions noted are these: binding to α2δ-1, [3H]-Gabapentin; read-out: Ki (nM) α2δ-1. Summed up: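 Radioactivity on dried GF/C filters quantified by scintillation after filtration and three cold Tris-HCl (pH 7.4) washes. Incubation ran 60 min at 27° C with [3H]-gabapentin; 10 μM pregabalin gave nonspecific binding.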
Chain of human α2δ-1 subunit of Cav2.2 calcium channel (P54289 25-1103): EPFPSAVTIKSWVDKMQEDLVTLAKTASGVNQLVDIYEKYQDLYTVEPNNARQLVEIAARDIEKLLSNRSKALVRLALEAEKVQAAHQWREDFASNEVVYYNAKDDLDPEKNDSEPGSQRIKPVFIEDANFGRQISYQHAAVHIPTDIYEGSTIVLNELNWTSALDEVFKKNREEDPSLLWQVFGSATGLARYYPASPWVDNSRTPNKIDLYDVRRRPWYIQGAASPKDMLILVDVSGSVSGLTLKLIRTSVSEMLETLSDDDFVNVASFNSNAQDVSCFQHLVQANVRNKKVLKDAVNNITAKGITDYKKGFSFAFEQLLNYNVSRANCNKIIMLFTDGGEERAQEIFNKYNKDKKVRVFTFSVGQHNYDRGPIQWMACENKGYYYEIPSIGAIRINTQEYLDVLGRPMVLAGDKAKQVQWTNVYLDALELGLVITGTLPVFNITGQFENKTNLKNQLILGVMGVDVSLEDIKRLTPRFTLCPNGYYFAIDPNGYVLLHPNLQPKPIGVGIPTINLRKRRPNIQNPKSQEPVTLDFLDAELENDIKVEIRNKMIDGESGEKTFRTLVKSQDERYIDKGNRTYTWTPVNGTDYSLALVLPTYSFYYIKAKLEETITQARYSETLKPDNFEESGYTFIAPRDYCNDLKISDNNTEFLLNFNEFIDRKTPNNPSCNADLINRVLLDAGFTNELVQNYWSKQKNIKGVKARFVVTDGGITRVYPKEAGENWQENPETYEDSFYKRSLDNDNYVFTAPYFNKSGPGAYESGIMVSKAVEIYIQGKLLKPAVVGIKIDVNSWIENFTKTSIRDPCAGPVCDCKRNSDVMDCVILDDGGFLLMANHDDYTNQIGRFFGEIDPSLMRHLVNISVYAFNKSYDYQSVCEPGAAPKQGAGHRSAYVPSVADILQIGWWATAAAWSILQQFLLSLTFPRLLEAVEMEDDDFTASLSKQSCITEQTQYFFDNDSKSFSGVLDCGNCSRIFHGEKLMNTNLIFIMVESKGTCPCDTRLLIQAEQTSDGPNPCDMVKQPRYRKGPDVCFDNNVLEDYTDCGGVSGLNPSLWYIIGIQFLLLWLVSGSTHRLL

Structures are written as SMILES.

By Ki is commonly meant the dissociation constant of the complex between target and ligand, obtained from inhibition or displacement. Take `CSc1ncc2c(n1)N(C)CCN(c1cccc(COC(C)CCN(C)C(=O)OC(C)(C)C)c1)C2=O` (stereo not drawn) [Example 50, tert-butyl methyl(3-((3-(9-methyl-2-(methylthio)-5-oxo-5,7,8,9-tetrahydro-6H-pyrimido[4,5-e][1,4]diazepin-6-yl)benzyl)oxy)butyl) carbamate]: the Ki is over 3000 nM.
The same measure for `CCNc1ncc2c(n1)N(C)CCN(c1cccc(O[C@@H](CCN(C)C(=O)OC(C)(C)C)c3ccccc3)c1)C2=O` [Example 71, tert-butyl (S)-(3-(3-(2-(ethylamino)-9-methyl-5-oxo-5,7,8,9-tetrahydro-6H-pyrimido[4,5-e][1,4]diazepin-6-yl)phenoxy)-3-phenylpropyl)(methyl) carbamate]: over 3000 nM; for `CCNc1ncc2c(n1)N(C)CCN(c1cccc(CCN(C)Cc3ccccc3)c1)C2=O` [Example 269, 6-(3-(2-(benzyl(methyl)amino)ethyl)phenyl)-2-(ethylamino)-9-methyl-6,7,8,9-tetrahydro-5H-pyrimido[4,5-e][1,4]diazepin-5-one]: 100 to 500 nM.
For `CSc1ncc2c(n1)N(C)CCN(c1cccc(Br)c1)C2=O` [Example 35, 6-(3-bromophenyl)-9-methyl-2-(methylthio)-6,7,8,9-tetrahydro-5H-pyrimido[4,5-e][1,4]diazepin-5-one], the Ki is over 3000 nM.
The value for `CCNc1ncc2c(n1)N(C)CCN(c1cccc(COC(CCN(C)C(=O)OC(C)(C)C)c3ccccc3)c1)C2=O` (stereo not drawn) [Example 77, tert-butyl (3-((3-(2-(ethylamino)-9-methyl-5-oxo-5,7,8,9-tetrahydro-6H-pyrimido[4,5-e][1,4]diazepin-6-yl)benzyl)oxy)-3-phenylpropyl)(methyl) carbamate] was over 3000 nM.
As to `CNCC(OCc1ccccc1CN1CCN(C)c2nc(SC)ncc2C1=O)c1ccccc1` (stereo not drawn) [Example 373, 9-methyl-6-(2-((2-(methylamino)-1-phenylethoxy)methyl)benzyl)-2-(methylthio)-6,7,8,9-tetrahydro-5H-pyrimido[4,5-e][1,4]diazepin-5-one], the Ki is over 3000 nM.
Take `CCNc1ncc2c(n1)N(C)CCN(c1cccc(OC(CCN(C)C(=O)OC(C)(C)C)c3ccccn3)c1)C2=O` (stereo not drawn) [Example 128, tert-butyl (3-(3-(2-(ethylamino)-9-methyl-5-oxo-5,7,8,9-tetrahydro-6H-pyrimido[4,5-e][1,4]diazepin-6-yl)phenoxy)-3-(pyridin-2-yl)propyl)(methyl) carbamate]: the inhibition constant Ki was over 3000 nM.
Take `CSc1ncc2c(n1)N(C)CCN(c1cccc(-n3cc(CN(C)C(=O)OC(C)(C)C)cn3)c1)C2=O` [Example 45, tert-butyl methyl((1-(3-(9-methyl-2-(methylthio)-5-oxo-5,7,8,9-tetrahydro-6H-pyrimido[4,5-e][1,4]diazepin-6-yl)phenyl)-1H-pyrazol-4-yl)methyl) carbamate]: the Ki was over 3000 nM.
Regarding `CCNc1ncc2c(n1)N(C)CCN(c1cccc(CCN(C)C(=O)OC(C)(C)C)c1)C2=O` [Example 92, tert-butyl (3-(2-(ethylamino)-9-methyl-5-oxo-5,7,8,9-tetrahydro-6H-pyrimido[4,5-e][1,4]diazepin-6-yl)phenethyl)(methyl) carbamate], the Ki was over 3000 nM.
In the case of `CSc1ncc2c(n1)N(C)CCN(c1cccc(O[Si](C)(C)C(C)(C)C)c1)C2=O` [Example 34, 6-(3-((tert-butyldimethyl-silyl)oxy)phenyl)-9-methyl-2-(methylthio)-6,7,8,9-tetrahydro-5H-pyrimido[4,5-e][1,4]diazepin-5-one], the Ki is over 3000 nM.
As to `CCNc1ncc2c(n1)N(C)CCN(c1cccc(-n3cc(CN)nn3)c1)C2=O` [Example 181, 6-(3-(4-(aminomethyl)-1H-1,2,3-triazol-1-yl)phenyl)-2-(ethylamino)-9-methyl-6,7,8,9-tetrahydro-5H-pyrimido[4,5-e][1,4]diazepin-5-one], the Ki fell in the range of 100 to 500 nM.
For `CSc1ncc2c(n1)N(C)CCN(c1cccc(O[C@@H](CCN(C)C(=O)OC(C)(C)C)c3ccccc3)c1)C2=O` [Example 3, tert-butyl (S)-methyl(3-(3-(9-methyl-2-(methylthio)-5-oxo-5,7,8,9-tetrahydro-6H-pyrimido[4,5-e][1,4]diazepin-6-yl)phenoxy)-3-phenylpropyl) carbamate], the Ki is over 3000 nM.
The value for `CN(CCC(Oc1cccc(N2CCN(C)c3cc(N(C)C)ncc3C2=O)c1)c1cccs1)C(=O)OCC[Si](C)(C)C` (stereo not drawn) [Example 59, 2-(trimethyl-silyl)ethyl (3-(3-(8-(dimethylamino)-1-methyl-5-oxo-1,2,3,5-tetrahydro-4H-pyrido[4,3-e] [1,4]diazepin-4-yl)phenoxy)-3-(thiophen-2-yl)propyl)(methyl) carbamate] was over 3000 nM; that for `CN(CC[C@H](Oc1cccc(N2CCN(C)c3cc(Cl)ncc3C2=O)c1)c1cccs1)C(=O)OCC[Si](C)(C)C` [Example 298, 2-(trimethylsilyl)ethyl (S)-(3-(3-(8-chloro-1-methyl-5-oxo-1,2,3,5-tetrahydro-4H-pyrido[4,3-e][1,4]diazepin-4-yl)phenoxy)-3-(thiophen-2-yl)propyl)(methyl) carbamate] was over 3000 nM; that for `Cc1nnc(-c2cccc(N3CCN(C)c4nc(N)ncc4C3=O)c2)o1` [Example 101, 2-amino-9-methyl-6-(3-(5-methyl-1,3,4-oxadiazol-2-yl)phenyl)-6,7,8,9-tetrahydro-5H-pyrimido[4,5-e][1,4]diazepin-5-one] was 500 to 3000 nM.
Regarding `CCNc1ncc2c(n1)N(C)CCN(c1cccc(OC3CCNC3)c1)C2=O` (stereo not drawn) [Example 175, 2-(ethylamino)-9-methyl-6-(3-(pyrrolidin-3-yloxy)phenyl)-6,7,8,9-tetrahydro-5H-pyrimido[4,5-e][1,4]diazepin-5-one], the Ki is 100 to 500 nM.
On to `CCNc1ncc2c(n1)N(C)CCN(c1cccc(-n3cnc(CN4CCC(c5cccc(O)c5)(N(C)C)CC4)c3)c1)C2=O` [Example 296, 6-(3-(4-((4-(dimethylamino)-4-(3-hydroxyphenyl)piperidin-1-yl)methyl)-1H-imidazol-1-yl)phenyl)-2-(ethylamino)-9-methyl-6,7,8,9-tetrahydro-5H-pyrimido[4,5-e][1,4]diazepin-5-one], for which the Ki fell in the range of 500 to 3000 nM.
For `CCN1CCN(Cc2ccc(O[C@@H](CCNC)c3cccs3)cc2)C(=O)c2cnc(OC)nc21` [Example 395], the Ki was 100 to 500 nM.
Consider `CCNc1ncc2c(n1)N(C)CCN(Cc1ccc(OC)cc1)C2` [Example 68, N-ethyl-6-(4-methoxybenzyl)-9-methyl-6,7,8,9-tetrahydro-5H-pyrimido[4,5-e][1,4]diazepin-2-amine], for which the Ki was over 3000 nM.
On to `CSc1ncc2c(n1)N(C)CCN(c1cccc(OC3CCN(C(=O)OC(C)(C)C)C3)c1)C2=O` (stereo not drawn) [Example 27, tert-butyl 3-(3-(9-methyl-2-(methylthio)-5-oxo-5,7,8,9-tetrahydro-6H-pyrimido[4,5-e][1,4]diazepin-6-yl)phenoxy) pyrrolidine-1-carboxylate], for which the Ki was over 3000 nM.
For the compound `CNCC(Oc1ccccc1CN1CCN(C)c2ncncc2C1=O)c1ccccc1` (stereo not drawn) [Example 432, 9-methyl-6-(2-(2-(methylamino)-1-phenylethoxy)benzyl)-6,7,8,9-tetrahydro-5H-pyrimido[4,5-e][1,4]diazepin-5-one], the Ki was over 3000 nM.

These data come from US10590140B2, “Tetrahydropyrimidodiazepine and dihydropyridodiazepine compounds for treating pain and pain related conditions” (ESTEVE PHARMACEUTICALS, S.A., priority 2016, dated 2020).
